Measured values reported in patent US7803816B2, “MCH receptor antagonists” (Hoffmann-La Roche Inc., priority 2005, dated 2010).
Counter-ions that a name gives are not always drawn.

biological target: T1, recombinant human MCHR1-receptors (Homo sapiens, UniProt Q99705); experiment: MCHR filter binding assay (competition binding); conditions: membranes from CHO-K1 cells expressing human MCHR1; 0.2 nM [Phe13,[125I]Tyr19]-MCH; read-out: IC50 (nM), in vitro activity (binding assay)
T1 construct: expressed in transfected cells
Method: MCHR Filter Binding Assay
Competition binding assays were performed using membranes from CHO-K1 cells stably expressing the recombinant human MCHR1-receptors. Binding reactions (90 μl, final volume) were carried out at rt by incubating 2.8 μg membranes with 0.2 nM [Phe^13,[^125I]Tyr^19]-MCH (PerkinElmer) in the absence or presence of various concentrations of competing ligands in binding buffer (50 mM HEPES, 2.5 mM CaCl2, 0.05 mM BSA, 1 mM phenanthroline, 0.03 mM Triton X-100). [Phe^13,[^125I]Tyr^19]-MCH was added 15 min following the addition of unlabeled competing ligands, and the reactions incubated for a 1 h period. The reactions were terminated by rapid filtration over pretreated 96-well filter plates (Millipore; MultiScreen 0.65 μm GFB filter plates). Filter Plates were treated for 12 h at 4° C. with a 0.5% polyvinylpyrrolidone solution containing 1% BSA and 0.1% Tween 20, and then washed with an ice-cold solution of 10 mM Tris, pH 7.5 (5×200 μl). The plates were drained following a 5 min incubation with binding buffer (200 μl) at rt. Following termination of the binding reactions, the filters were washed with ice-cold binding buffer (4×200 μl). The filter plates were air dried for 30 min, scintillation cocktail (60 μl) added to each well and radioactivity bound to the plates was determined using a Micro-beta plate reader (Wallace/PerkinElmer).

T1 sequence (Q99705 whole entry): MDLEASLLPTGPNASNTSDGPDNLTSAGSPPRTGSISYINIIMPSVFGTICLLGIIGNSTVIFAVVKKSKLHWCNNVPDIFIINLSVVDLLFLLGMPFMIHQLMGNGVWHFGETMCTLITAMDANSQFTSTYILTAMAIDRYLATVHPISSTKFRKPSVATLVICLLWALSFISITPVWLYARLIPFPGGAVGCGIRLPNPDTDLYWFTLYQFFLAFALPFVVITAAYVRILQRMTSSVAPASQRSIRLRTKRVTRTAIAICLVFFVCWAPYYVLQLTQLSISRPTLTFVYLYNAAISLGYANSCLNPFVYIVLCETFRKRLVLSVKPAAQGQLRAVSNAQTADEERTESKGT

| Compound | IC50 |
| --- | --- |
| 1-((3R,4R)-1-Indan-2-ylmethyl-3-methoxy-piperidin-4-yl)-2,5-dimethyl-1H-benzoimidazole; dihydrochloride [Example 55] | 200 to 5000 nM |
| Cc1ccc2c(c1)nc(C)n2[C@@H]1CCN(C[C@@H]2Cc3ccc(NC(=O)C(C)C)cc3C2)C[C@H]1CO (racemic) [Example 3, N-{(R)-2-[4-(2,5-Dimethyl-benzoimidazol-1-yl)-3-hydroxymethyl-piperidin-1-ylmethyl]-indan-5-yl}-isobutyramide] | < 20 nM |
| Cc1ccc2c(c1)nc(C(C)C)n2[C@@H]1CCN(CC2Cc3ccc(NC(=O)C4CC4)cc3C2)C[C@H]1O (stereo in doubt) [Example 2, Cyclopropanecarboxylic acid {(R)-2-[(3R,4R)-3-hydroxy-4-(2-isopropyl-5-methyl-benzoimidazol-1-yl)-piperidin-1-ylmethyl]-indan-5-yl}-amide] | 20 to 200 nM |
| CCOc1nc2cc(C)ccc2n1C1CCN(CC2Cc3ccc(NC(=O)C(C)C)cc3C2)CC1 (stereo in doubt) [Example 4, N-{(S)-2-[4-(2-Ethoxy-5-methyl-benzoimidazol-1-yl)-piperidin-1-ylmethyl]-indan-5-yl}-isobutyramide] | 20 to 200 nM |
| CCC(=O)Nc1ccc2c(c1)CC(CN1CC[C@@H](n3c(C)nc4cc(C)ccc43)[C@H](O)C1)C2 (stereo in doubt) [Example 5, N-{(S)-2-[(3R,4R)-4-(2,5-Dimethyl-benzoimidazol-1-yl)-3-hydroxy-piperidin-1-ylmethyl]-indan-5-yl}-propionamide] | 20 to 200 nM |
| CO[C@@H]1CN(CC2Cc3ccc(Br)cc3C2)CC[C@H]1n1c(C(C)(C)O)nc2cc(C)ccc21 (stereo in doubt) [Example 11, 2-{1-[(3R,4R)-1-((S)-5-Bromo-indan-2-ylmethyl)-3-methoxy-piperidin-4-yl]-5-methyl-1H-benzoimidazol-2-yl}-propan-2-ol] | < 20 nM |
| CCC(=O)Nc1ccc2c(c1)C[C@H](CN1CCC(n3c(C(C)C)nc4cc(C)ccc43)[C@@H](OC)C1)C2 (stereo in doubt) [Example 32, N-{(R)-2-[(3S,4S)-4-(2-Isopropyl-5-methyl-benzoimidazol-1-yl)-3-methoxy-piperidin-1-ylmethyl]-indan-5-yl}-propionamide] | < 20 nM |
| CO[C@H]1CN(C[C@@H]2Cc3ccc(NC(=O)C4CC4)cc3C2)CCC1n1c(C2CC2)nc2cc(C)ccc21 (stereo in doubt) [Example 66, Cyclopropanecarboxylic acid {(R)-2-[(3S,4S)-4-(2-cyclopropyl-5-methyl-benzoimidazol-1-yl)-3-methoxy-piperidin-1-ylmethyl]-indan-5-yl}-amide] | < 20 nM |
| COC1CN(C[C@H]2Cc3ccc(C#N)cc3C2)CC[C@H]1n1c(C(C)(C)O)nc2cc(C)ccc21 (stereo in doubt) [Example 120, (S)-2-{(3R,4R)-4-[2-(1-Hydroxy-1-methyl-ethyl)-5-methyl-benzoimidazol-1-yl]-3-methoxy-piperidin-1-ylmethyl}-indan-5-carbonitrile] | < 20 nM |
| Cc1ccc2c(c1)nc(C(C)(C)O)n2[C@@H]1CCN(C[C@H]2Cc3ccc(Br)cc3C2)CC1O (stereo in doubt) [Example 122, (3R,4R)-1-((S)-5-Bromo-indan-2-ylmethyl)-4-[2-(1-hydroxy-1-methyl-ethyl)-5-methyl-benzoimidazol-1-yl]-piperidin-3-ol] | < 20 nM |
| CO[C@@H]1CN(C[C@H]2Cc3ccc(Br)cc3C2)CC[C@H]1n1c(C)nc2cc(C)ccc21 [Example 1, 1-[(3R,4R)-1-((S)-5-Bromo-indan-2-ylmethyl)-3-methoxy-piperidin-4-yl]-2,5-dimethyl-1H-benzoimidazole] | < 20 nM |
| COC(=O)Nc1ccc2c(c1)C[C@H](CN1CCC(n3c(C(C)(C)O)nc4cc(C)ccc43)CC1)C2 [Example 6, ((R)-2-{4-[2-(1-Hydroxy-1-methyl-ethyl)-5-methyl-benzoimidazol-1-yl]-piperidin-1-ylmethyl}-indan-5-yl)-carbamic acid methyl ester] | 20 to 200 nM |
| Cc1ccc2c(c1)nc(C)n2[C@@H]1CCN(C[C@@H]2Cc3ccc(NC(=O)C(C)C)cc3C2)C[C@H]1OS(C)(=O)=O [Example 7, Methanesulfonic acid 4-(2,5-dimethyl-benzoimidazol-1-yl)-1-((R)-5-isobutyrylamino-indan-2-ylmethyl)-piperidin-3-yl ester] | 20 to 200 nM |
| CCC(=O)Nc1ccc2c(c1)C[C@H](CN1CCC(n3c(C(C)(C)O)nc4cc(C)ccc43)CC1)C2 [Example 8, N-((R)-2-{4-[2-(1-Hydroxy-1-methyl-ethyl)-5-methyl-benzoimidazol-1-yl]-piperidin-1-ylmethyl}-indan-5-yl)-propionamide] | 20 to 200 nM |
| Cc1ccc2c(c1)nc(C)n2[C@@H]1CCN(C[C@H]2Cc3ccc(NC(=O)C(C)C)cc3C2)C[C@H]1O [Example 9, N-{(S)-2-[(3R,4R)-4-(2,5-Dimethyl-benzoimidazol-1-yl)-3-hydroxy-piperidin-1-ylmethyl]-indan-5-yl}-isobutyramide; trifluoroacetic acid salt] | 20 to 200 nM |
| Cc1cc2nc(C)n(C3CCN(C[C@@H]4Cc5ccc(NC(=O)C(C)C)cc5C4)CC3)c2cn1 [Example 10, N-{(R)-2-[4-(2,6-Dimethyl-imidazo[4,5-c]pyridin-3-yl)-piperidin-1-ylmethyl]-indan-5-yl}-isobutyramide; compound with trifluoro-acetic acid] | 200 to 5000 nM |
| Cc1ccc2c(c1)nc(C(C)(C)O)n2C1CCN(CC2Cc3ccncc3C2)CC1 (centres unmarked) [Example 12, 2-{1-[1-(6,7-Dihydro-5H-[2]pyrindin-6-ylmethyl)-piperidin-4-yl]-5-methyl-1H-benzoimidazol-2-yl}-propan-2-ol] | 20 to 200 nM |
| Cc1cc2nc(C(C)(C)O)n(C3CCN(CC4Cc5ccc(F)cc5C4)CC3)c2cc1F (centres unmarked) [Example 13, 2-{6-Fluoro-1-[1-(5-fluoro-indan-2-ylmethyl)-piperidin-4-yl]-5-methyl-1H-benzoimidazol-2-yl}-propan-2-ol] | < 20 nM |
| Cc1ccc2c(c1)nc(C(C)(C)O)n2C1CCN(CC2Cc3ccc(Cl)cc3C2)CC1 (centres unmarked) [Example 14, 2-{1-[1-(5-Chloro-indan-2-ylmethyl)-piperidin-4-yl]-5-methyl-1H-benzoimidazol-2-yl}-propan-2-ol] | < 20 nM |
| Cc1ccc2c(c1)nc(C)n2[C@H]1CCN(C[C@@H]2Cc3ccc(NC(=O)C(C)C)cc3C2)C[C@@H]1OCC(C)(C)O [Example 15, N-{(R)-2-[(3S,4S)-4-(2,5-Dimethyl-benzoimidazol-1-yl)-3-(2-hydroxy-2-methyl-propoxy)-piperidin-1-ylmethyl]-indan-5-yl}-isobutyramide; dihydrochloride] | < 20 nM |
| CO[C@@H]1CN(C[C@@H]2Cc3ccc(NC(=O)C(C)C)cc3C2)CC[C@H]1n1c(C)nc2cc(C)ccc21 [Example 16, N-{(R)-2-[(3R,4R)-4-(2,5-Dimethyl-benzoimidazol-1-yl)-3-methoxy-piperidin-1-ylmethyl]-indan-5-yl}-isobutyramide; dihydrochloride] | 20 to 200 nM |
| CO[C@H]1CN(C[C@H]2Cc3ccc(Br)cc3C2)CC[C@@H]1n1c(C(C)C)nc2cc(C)ccc21 [Example 17, 1-[(3S,4S)-1-((S)-5-Bromo-indan-2-ylmethyl)-3-methoxy-piperidin-4-yl]-2-isopropyl-5-methyl-1H-benzoimidazole] | 20 to 200 nM |
| CO[C@@H]1CN(C[C@H]2Cc3ccc(Br)cc3C2)CC[C@H]1n1c(C(C)C)nc2cc(C)ccc21 [Example 18, 1-[(3R,4R)-1-((S)-5-Bromo-indan-2-ylmethyl)-3-methoxy-piperidin-4-yl]-2-isopropyl-5-methyl-1H-benzoimidazole] | 20 to 200 nM |
| CO[C@H]1CN(CC2Cc3ccc(Cl)cc3C2)CC[C@@H]1n1c(C)nc2cc(C)ccc21 (stereo partly drawn) [Example 19, 1-[(3S,4S)-1-(5-Chloro-indan-2-ylmethyl)-3-methoxy-piperidin-4-yl]-2,5-dimethyl-1H-benzoimidazole; dihydrochloride] | 20 to 200 nM |
| CO[C@@H]1CN(CC2Cc3ccc(F)cc3C2)CC[C@H]1n1c(C)nc2cc(C)ccc21 (stereo partly drawn) [Example 20, 1-[(3R,4R)-1-(5-Fluoro-indan-2-ylmethyl)-3-methoxy-piperidin-4-yl]-2,5-dimethyl-1H-benzoimidazole] | 20 to 200 nM |
| Cc1ccc2c(c1)nc(C)n2[C@@H]1CCN(C[C@@H]2Cc3ccc(NC(=O)C(C)C)cc3C2)C[C@H]1OCC(C)(C)O [Example 21, N-{(R)-2-[(3R,4R)-4-(2,5-Dimethyl-benzoimidazol-1-yl)-3-(2-hydroxy-2-methyl-propoxy)-piperidin-1-ylmethyl]-indan-5-yl}-isobutyramide; dihydrochloride] | 20 to 200 nM |

same assay, conditions: membranes from CHO-K1 cells expressing human MCHR1; 0.2 nM [Phe13,[125I]Tyr19]-MCH; read-out: IC50 (nM), selected in vitro MCH-R binding data

| Compound | IC50 |
| --- | --- |
| CO[C@H]1CN(C[C@@H]2Cc3ccc(NC(=O)C4CC4)cc3C2)CCC1n1c(C2CC2)nc2cc(C)ccc21 (stereo in doubt) [Example 66, Cyclopropanecarboxylic acid {(R)-2-[(3S,4S)-4-(2-cyclopropyl-5-methyl-benzoimidazol-1-yl)-3-methoxy-piperidin-1-ylmethyl]-indan-5-yl}-amide] | 12 nM |
| Cc1ccc2c(c1)nc(C(C)(C)O)n2[C@@H]1CCN(C[C@H]2Cc3ccc(Br)cc3C2)CC1O (stereo in doubt) [Example 126, (3R,4R)-1-((S)-5-Bromo-indan-2-ylmethyl)-4-[2-(1-hydroxy-1-methyl-ethyl)-5-methyl-benzoimidazol-1-yl]-piperidin-3-ol] | 2 nM |
| CO[C@@H]1CN(C[C@H]2Cc3ccc(Br)cc3C2)CC[C@H]1n1c(C)nc2cc(C)ccc21 [Example 1, 1-[(3R,4R)-1-((S)-5-Bromo-indan-2-ylmethyl)-3-methoxy-piperidin-4-yl]-2,5-dimethyl-1H-benzoimidazole] | 20 nM |
